Measured values reported in PubChem BioAssay (NCI).
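Grown in 96-well plates, cells were treated for 48 hours with each compound at five concentrations. Insufficient inhibition: endpoint recorded as highest concentration tested. Here, GI50 denotes the concentration required for 50% inhibition of growth. TGI is the concentration that stops growth completely.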

Assays:
Assay in all cases: NCI-60 cell line screen, 48 h
786-0 renal = test system: 786-0 renal
A498 renal = test system: A498 renal
A549 NSCLC = test system: A549 NSCLC
ACHN renal = test system: ACHN renal
BT-549 breast = test system: BT-549 breast
CAKI-1 renal = test system: CAKI-1 renal
CCRF-CEM leukemia = test system: CCRF-CEM leukemia
COLO 205 colon = test system: COLO 205 colon
DU-145 prostate = test system: DU-145 prostate
EKVX NSCLC = test system: EKVX NSCLC
HCC-2998 colon = test system: HCC-2998 colon
HCT-116 colon = test system: HCT-116 colon
HCT-15 colon = test system: HCT-15 colon
HL-60(TB) leukemia = test system: HL-60(TB) leukemia
HOP-62 NSCLC = test system: HOP-62 NSCLC
HOP-92 NSCLC = test system: HOP-92 NSCLC
HS 578T breast = test system: HS 578T breast
HT29 colon = test system: HT29 colon
IGROV1 ovarian = test system: IGROV1 ovarian
K-562 leukemia = test system: K-562 leukemia
KM12 colon = test system: KM12 colon
LOX IMVI melanoma = test system: LOX IMVI melanoma
M14 melanoma = test system: M14 melanoma
MCF7 breast = test system: MCF7 breast
MDA-MB-231 breast = test system: MDA-MB-231 breast
MDA-MB-435 = test system: MDA-MB-435
MOLT-4 leukemia = test system: MOLT-4 leukemia
NCI-H226 lung = test system: NCI-H226 lung
NCI-H23 lung = test system: NCI-H23 lung
NCI-H460 lung = test system: NCI-H460 lung
NCI-H522 lung = test system: NCI-H522 lung
NCI/ADR-RES ovarian = test system: NCI/ADR-RES ovarian
OVCAR-3 ovarian = test system: OVCAR-3 ovarian
OVCAR-4 ovarian = test system: OVCAR-4 ovarian
OVCAR-5 ovarian = test system: OVCAR-5 ovarian
OVCAR-8 ovarian = test system: OVCAR-8 ovarian
PC-3 prostate = test system: PC-3 prostate
RPMI-8226 leukemia = test system: RPMI-8226 leukemia
RXF 393 renal = test system: RXF 393 renal
SF-268 CNS = test system: SF-268 CNS
SF-295 CNS = test system: SF-295 CNS
SF-539 CNS = test system: SF-539 CNS
SK-MEL-2 melanoma = test system: SK-MEL-2 melanoma
SK-MEL-28 melanoma = test system: SK-MEL-28 melanoma
SK-MEL-5 melanoma = test system: SK-MEL-5 melanoma
SK-OV-3 ovarian = test system: SK-OV-3 ovarian
SN12C renal = test system: SN12C renal
SNB-19 CNS = test system: SNB-19 CNS
SNB-75 CNS = test system: SNB-75 CNS
SR leukemia = test system: SR leukemia
SW-620 colon = test system: SW-620 colon
T-47D breast = test system: T-47D breast
TK-10 renal = test system: TK-10 renal
U251 CNS = test system: U251 CNS
UACC-257 melanoma = test system: UACC-257 melanoma
UACC-62 melanoma = test system: UACC-62 melanoma
UO-31 renal = test system: UO-31 renal

O=C1OCC2=C1C(c1cccc(F)c1)c1cc3c(cc1N2CCO)CCC3 (stereo not drawn)
GI50 (786-0 renal): 71.8 nM | TGI (786-0 renal): > 50000 nM | GI50 (A498 renal): 13.8 nM | TGI (A498 renal): 261 nM | GI50 (A549 NSCLC): 113 nM | TGI (A549 NSCLC): > 50000 nM | GI50 (ACHN renal): 129 nM | TGI (ACHN renal): > 50000 nM | GI50 (BT-549 breast): 161 nM | TGI (BT-549 breast): 6950 nM | GI50 (CAKI-1 renal): 38.1 nM | TGI (CAKI-1 renal): > 33300 nM | GI50 (CCRF-CEM leukemia): 168 nM | TGI (CCRF-CEM leukemia): > 50000 nM | GI50 (COLO 205 colon): 152 nM | GI50 (DU-145 prostate): 162 nM | TGI (DU-145 prostate): > 24400 nM | GI50 (EKVX NSCLC): 162 nM | TGI (EKVX NSCLC): > 50000 nM | GI50 (HCC-2998 colon): 148 nM | TGI (HCC-2998 colon): 11000 nM | GI50 (HCT-116 colon): 81.9 nM | TGI (HCT-116 colon): > 50000 nM | GI50 (HCT-15 colon): 46.4 nM | TGI (HCT-15 colon): > 20200 nM | GI50 (HL-60(TB) leukemia): 77.3 nM | TGI (HL-60(TB) leukemia): 376 nM | GI50 (HOP-62 NSCLC): 798 nM | TGI (HOP-62 NSCLC): > 50000 nM | GI50 (HOP-92 NSCLC): 1620 nM | TGI (HOP-92 NSCLC): 49600 nM | GI50 (HS 578T breast): 50.9 nM | TGI (HS 578T breast): > 30600 nM | GI50 (HT29 colon): 92.2 nM | TGI (HT29 colon): > 18900 nM | GI50 (IGROV1 ovarian): 81.7 nM | TGI (IGROV1 ovarian): > 50000 nM | GI50 (K-562 leukemia): 28 nM | TGI (K-562 leukemia): > 50000 nM | GI50 (KM12 colon): 55.9 nM | TGI (KM12 colon): > 50000 nM | GI50 (LOX IMVI melanoma): 95.8 nM | TGI (LOX IMVI melanoma): 10100 nM | GI50 (M14 melanoma): 49.1 nM | TGI (M14 melanoma): > 20900 nM | GI50 (MCF7 breast): 22.9 nM | TGI (MCF7 breast): > 29000 nM | GI50 (MDA-MB-231 breast): 218 nM | TGI (MDA-MB-231 breast): > 22200 nM | GI50 (MDA-MB-435): 16.6 nM | TGI (MDA-MB-435): 68.4 nM | GI50 (MOLT-4 leukemia): 237 nM | TGI (MOLT-4 leukemia): > 50000 nM | GI50 (NCI-H226 lung): 1020 nM | TGI (NCI-H226 lung): > 47600 nM | GI50 (NCI-H23 lung): 248 nM | TGI (NCI-H23 lung): > 50000 nM | GI50 (NCI-H460 lung): 60.9 nM | TGI (NCI-H460 lung): 6970 nM | GI50 (NCI-H522 lung): 16.9 nM | TGI (NCI-H522 lung): 704 nM | GI50 (NCI/ADR-RES ovarian): 43.5 nM | TGI (NCI/ADR-RES ovarian): > 50000 nM | GI50 (OVCAR-3 ovarian): 29.3 nM | TGI (OVCAR-3 ovarian): 3920 nM | GI50 (OVCAR-4 ovarian): 1760 nM | TGI (OVCAR-4 ovarian): > 50000 nM | GI50 (OVCAR-5 ovarian): 205 nM | TGI (OVCAR-5 ovarian): > 50000 nM | GI50 (OVCAR-8 ovarian): 139 nM | TGI (OVCAR-8 ovarian): > 50000 nM | GI50 (PC-3 prostate): 65.7 nM | TGI (PC-3 prostate): > 50000 nM | GI50 (RPMI-8226 leukemia): 167 nM | TGI (RPMI-8226 leukemia): 29700 nM | GI50 (RXF 393 renal): 91.4 nM | TGI (RXF 393 renal): > 50000 nM | GI50 (SF-268 CNS): 122 nM | TGI (SF-268 CNS): 25200 nM | GI50 (SF-295 CNS): 23.3 nM | TGI (SF-295 CNS): 10800 nM | GI50 (SF-539 CNS): 49.1 nM | TGI (SF-539 CNS): 434 nM | GI50 (SK-MEL-2 melanoma): 1070 nM | TGI (SK-MEL-2 melanoma): 39000 nM | GI50 (SK-MEL-28 melanoma): 655 nM | TGI (SK-MEL-28 melanoma): > 50000 nM | GI50 (SK-MEL-5 melanoma): 62.6 nM | TGI (SK-MEL-5 melanoma): 2580 nM | GI50 (SK-OV-3 ovarian): 844 nM | TGI (SK-OV-3 ovarian): > 50000 nM | GI50 (SN12C renal): 233 nM | TGI (SN12C renal): > 50000 nM | GI50 (SNB-19 CNS): 113 nM | TGI (SNB-19 CNS): > 50000 nM | GI50 (SNB-75 CNS): 13.6 nM | TGI (SNB-75 CNS): 47400 nM | GI50 (SR leukemia): 28.5 nM | TGI (SR leukemia): 37400 nM | GI50 (SW-620 colon): 57.1 nM | TGI (SW-620 colon): > 50000 nM | GI50 (T-47D breast): 2930 nM | TGI (T-47D breast): > 50000 nM | GI50 (TK-10 renal): 433 nM | TGI (TK-10 renal): > 50000 nM | GI50 (U251 CNS): 90.4 nM | TGI (U251 CNS): > 34000 nM | GI50 (UACC-257 melanoma): 12200 nM | TGI (UACC-257 melanoma): > 50000 nM | GI50 (UACC-62 melanoma): 22.7 nM | TGI (UACC-62 melanoma): 33400 nM | GI50 (UO-31 renal): 107 nM | TGI (UO-31 renal): > 42500 nM
